Experiments:
lysoPLD = lysoPLD (Bos taurus, UniProt A1A4K5); conditions: 25° C.
Experimental: FIG. 9 illustrates the evaluation of the fluorogenic substrate FS-1 using fetal bovine serum which is known to be a rich source of LPA that is “self-regenerating” through the in situ activity of lysoPLD. (Umezu-Goto, et al., Journal of Cell Biology, 158:227-33. (2002)) A 10 mM stock solution of FS-1 in MeOH was added to 50 μL solutions of 1% or 10% FBS in PBS and incubated at 25° C. overnight. Measurements were taken on a Hewlett Packard Fusion instrument at 1, 3, 5, and 18 hours.

[1] = biological target: T1, purified lysoPLD from human serum (Homo sapiens, UniProt Q13822); conditions: cited from earlier work
T1 construct: The purified lysoPLD from human serum; host or cells: human serum (purified; values quoted from Tokumura et al., J. Biol. Chem. 277:39436-42, 2002)

Compound | fluorescence change on cleavage of the quenched substrate (lysoPLD; 1% or 10% FBS in PBS, read at 1, 3, 5 and 18 hours, unoptimized assay) | substrate concentration of optimal conversion (lysoPLD; FBS in PBS) [µM] | Km [1] [µM] | Vmax [1] [nmol/min]
DABCYL-aminoethyl (N-BODIPY-FL®-aminocaproyl)-2-tert-buiylglycerylphosphate [FS-1] | increase in fluorescence with time | 100 | – | –
CCCCCCCCCCCCCCCC(=O)OC[C@@H](O)COP(=O)([O-])OCC[N+](C)(C)C [16:0 LPC] | – | – | 260 | 103

From patent US8512971B2, “Compounds and methods of use thereof for assaying lysophospholipase D activity” (Echelon Biosciences, Inc., priority 2002, dated 2013)
